In patent US20260008746A1, “CATIONIC LIPID COMPOUND WITH HIGH EFFICIENCY, LOW TOXICITY AND STABLE EXPRESSION, AND COMPOSITION COMPRISNG SAME” (HANGZHOU TIANLONG PHARMACEUTICAL CO., LTD, priority 2023, published 2026):

Columns and labels:
[1] = system: BALB/C mice; assay: In vivo imaging of Fluc-mRNA expression in mice delivered by LNP formulations; settings: for average radiation intensity, 6 h / average radiation intensity, 24 h / average radiation intensity, 48 h / average radiation intensity, 7 d: LNP containing 10 pg Fluc-mRNA, intramuscular, female BALB/C mice
Procedure: The LNP formulation containing […] Fluc-mRNA was injected intramuscularly into female BALB/C mice aged 4-6 weeks old and weighed 17-19 g, and the mice were intraperitoneally injected with fluorescent imaging substrate at specific time points after administration (6h, 24 h, 48h and 7d), where the mice were allowed to move freely for 5 minutes, and then the average radiation intensity (corresponding to fluorescence expression intensity) of the protein expression of the mRNA carried by the LNP in the mice was detected by the IVIS Spectrum small animal in vivo imaging device. The test results are shown in Tables 11 to 14 and FIGS. 12 to 14.

[2] = system: 293T cells; assay: Fluorescent detection of Fluc-mRNA (cell transfection efficiency of LNP formulations); format: cell-based; settings: for Relative light unit (RLU): LNP formulation containing 0.3 μg Fluc-mRNA, 96-well plate, 24 hours; for Multiples (YK-101): RLU of YK-101 / RLU of named substance; for Multiples (YK-107): RLU of YK-107 / RLU of named substance; for Multiples (YK-108): RLU of YK-108 / RLU of named substance; for fluorescence absorption value, times that of HHMA: RLU of named substance / RLU of HHMA; for fluorescence absorption value, times that of Lipofectamine 3000: RLU of named substance / RLU of Lipofectamine 3000; for Ratio relative to SM-102: RLU of named substance / RLU of SM-102; for Fluc-mRNA expression signal intensity, times that of compound 21: RLU of named substance / RLU of compound 21; for fluorescence absorption value, times that of compound 23: RLU of named substance / RLU of compound 23
Procedure: (§1) Cell recovery and passage: 293T cells were recovered, cultured in a culture dish, and passaged to the required number of cells.
(§2) Seeding plate: The cells in the culture dish were digested and counted. Cells were spread in a 96-well plate at 10,000 cells per well and in a 12-well plate at 150,000 cells per well. Cells were cultured overnight until the cells adhered to the wall.
Cell recovery and passage: the method was the same as in Example 3.
Seeding plate: the method was the same as in Example 3.
An LNP formulation containing 0.3 μg of Fluc-mRNA (the carrier components of the LNP formulation were cationic lipid, neutral lipid, structured lipid and polymer-conjugated lipid with a molar ratio of 49:10:39.5:1.5, wherein the cationic lipid was listed in Table 1) was added to the cell culture medium of a 96-well plate, and further incubated for 24 hours. The corresponding reagent was added according to the instructions of the Gaussia Luciferase Assay Kit, and the fluorescence expression intensity of each well was detected by an IVIS fluorescence detection system. This test verified the transfection efficiencies of LNP formulations in cells, see Tables 3-6 for specific test results.

[3] = system: 293T cells; assay: Cell survival rate determination (CCK-8); format: cell-based; settings: for Cell survival rate (%): LNP formulation containing 1.5 μg Fluc-mRNA, 24 hours, CCK-8, absorbance at 450 nm; for cell survival rate lower than that of YK-101: cell survival rate of YK-101 minus that of named substance; for cell survival rate lower than that of YK-107: cell survival rate of YK-107 minus that of named substance; for cell survival rate lower than that of YK-108: cell survival rate of YK-108 minus that of named substance
Procedure: as §1, §2
An LNP formulation containing 1.5 μg of Fluc-mRNA (the cater component of the LNP formulation were cationic lipid, neutral lipid, structured lipid and polymer-conjugated lipid with a molar ratio of 49: 10: 39.5: 1.5, wherein the cationic lipid was listed in Table 1) and the formulation of Lipofectamine 3000 were added to the cell culture medium of a 96-well plate, and further cultivated for 24 hours. 10 μL of CCK-8 solution was then added to each well, and the culture plate was incubated in an incubator for 1 hour. The absorbance at 450 nm was measured by a microplate reader.

SMILES: CCCCCCCCCCOC(=O)CCCN(CCCCCC(=O)OCCC(CCCCCC)CCCCCC)C1CCCC1O (stereo not shown) [YK-120, 3-hexylnonyl 6-(4-(decyloxy)-4-oxobutyl)((2-hydroxycyclopentyl)amino)hexanoate]
- average radiation intensity of YK-101, times that of named substance ([1]; 6 h): 2.7 times
- average radiation intensity of YK-107, times that of named substance ([1]; 6 h): 2.9 times
- average radiation intensity of YK-108, times that of named substance ([1]; 6 h): 3.6 times
- average radiation intensity of YK-101, times that of named substance ([1]; 24 h): 11.1 times
- average radiation intensity of YK-107, times that of named substance ([1]; 24 h): 13.7 times
- average radiation intensity of YK-108, times that of named substance ([1]; 24 h): 14.8 times
- average radiation intensity of YK-101, times that of named substance ([1]; 48 h): 8.9 times
- average radiation intensity of YK-107, times that of named substance ([1]; 48 h): 10.9 times
- average radiation intensity of YK-108, times that of named substance ([1]; 48 h): 11.1 times
- average radiation intensity of YK-101, times that of named substance ([1]; 7 d): 2.4 times
- average radiation intensity of YK-107, times that of named substance ([1]; 7 d): 2.6 times
- average radiation intensity of YK-108, times that of named substance ([1]; 7 d): 2.8 times
- average radiation intensity, 6 h ([1]; 6 h): 559000
- average radiation intensity, 24 h ([1]; 24 h): 94779
- average radiation intensity, 48 h ([1]; 48 h): 20832
- average radiation intensity, 7 d ([1]; 7 d): 5052
- Relative light unit (RLU) [2]: 1403572 RLU
- Multiples (YK-101) [2]: 14.49
- Multiples (YK-107) [2]: 15.93
- Multiples (YK-108) [2]: 17.57
- fluorescence absorption value, times that of HHMA [2]: 0.69 times
- fluorescence absorption value, times that of Lipofectamine 3000 [2]: 1.31 times
- Ratio relative to SM-102 [2]: 0.91
- Fluc-mRNA expression signal intensity, times that of compound 21 [2]: 1.01 times
- fluorescence absorption value, times that of compound 23 [2]: 1.09 times
- Cell survival rate (%) [3]: 73.43%
- cell survival rate lower than that of YK-101 [3]: 16.69%
- cell survival rate lower than that of YK-107 [3]: 17.02%
- cell survival rate lower than that of YK-108 [3]: 16.43%

SMILES: CCCCCCCCCCCOC(=O)CCCN(CCO)CCCCCCC(=O)OCCC(CCCCCC)CCCCCC [YK-108, 3-hexylnonyl 7-(4-(undecyloxy)-4-oxobutyl)((2-hydroxyethyl)amino)heptanoate]
- average radiation intensity, 6 h ([1]; 6 h): 2017280
- average radiation intensity, 24 h ([1]; 24 h): 1406010
- average radiation intensity, 48 h ([1]; 48 h): 230360
- average radiation intensity, 7 d ([1]; 7 d): 14194
- Relative light unit (RLU) [2]: 24660507 RLU
- Multiples (YK-101) [2]: 0.82
- Multiples (YK-107) [2]: 0.91
- Multiples (YK-108) [2]: 1.00
- Ratio relative to SM-102 [2]: 16.07
- Cell survival rate (%) [3]: 89.86%

SMILES: CCCCCCCCCCOC(=O)CCCN(CCO)CCCCCC(=O)OCCC(CCCCCC)CCCCCC [YK-101, 3-hexylnonyl-6-(4-(decyloxy)-4-oxobutyl)((2-hydroxyethyl)amino)hexanoate]
- average radiation intensity, 6 h ([1]; 6 h): 1496240
- average radiation intensity, 24 h ([1]; 24 h): 1056210
- average radiation intensity, 48 h ([1]; 48 h): 185905
- average radiation intensity, 7 d ([1]; 7 d): 12165
- Relative light unit (RLU) [2]: 20335193 RLU
- Multiples (YK-101) [2]: 1.00
- Multiples (YK-107) [2]: 1.10
- Multiples (YK-108) [2]: 1.21
- Ratio relative to SM-102 [2]: 13.25
- Cell survival rate (%) [3]: 90.12%

SMILES: CCCCCCCCCCOC(=O)CCCN(CCCO)CCCCCC(=O)OCCC(CCCCCC)CCCCCC [YK-102, 3-hexylnonyl-6-(4-(decyloxy)-4-oxobutyl)((3-hydroxypropyl)amino)hexanoate]
- average radiation intensity of YK-101, times that of named substance ([1]; 6 h): 2.3 times
- average radiation intensity of YK-107, times that of named substance ([1]; 6 h): 2.5 times
- average radiation intensity of YK-108, times that of named substance ([1]; 6 h): 3.1 times
- average radiation intensity of YK-101, times that of named substance ([1]; 24 h): 10.5 times
- average radiation intensity of YK-107, times that of named substance ([1]; 24 h): 13.0 times
- average radiation intensity of YK-108, times that of named substance ([1]; 24 h): 14.0 times
- average radiation intensity of YK-101, times that of named substance ([1]; 48 h): 6.1 times
- average radiation intensity of YK-107, times that of named substance ([1]; 48 h): 7.4 times
- average radiation intensity of YK-108, times that of named substance ([1]; 48 h): 7.6 times
- average radiation intensity of YK-101, times that of named substance ([1]; 7 d): 1.9 times
- average radiation intensity of YK-107, times that of named substance ([1]; 7 d): 2.1 times
- average radiation intensity of YK-108, times that of named substance ([1]; 7 d): 2.2 times
- average radiation intensity, 6 h ([1]; 6 h): 652680
- average radiation intensity, 24 h ([1]; 24 h): 100422
- average radiation intensity, 48 h ([1]; 48 h): 30507
- average radiation intensity, 7 d ([1]; 7 d): 6477
- Relative light unit (RLU) [2]: 1464032 RLU
- Multiples (YK-101) [2]: 13.89
- Multiples (YK-108) [2]: 16.84
- Ratio relative to SM-102 [2]: 0.95
- Cell survival rate (%) [3]: 51.82%
- cell survival rate lower than that of YK-101 [3]: 38.30%
- cell survival rate lower than that of YK-107 [3]: 38.63%
- cell survival rate lower than that of YK-108 [3]: 38.04%

SMILES: CCCCCCCCC(CCCCCCCC)COC(=O)CCCCCN(CCO)CCCCCC(=O)OCCCSSCCCCC [YK-111]
- average radiation intensity of YK-101, times that of named substance ([1]; 6 h): 2.3 times
- average radiation intensity of YK-107, times that of named substance ([1]; 6 h): 2.4 times
- average radiation intensity of YK-108, times that of named substance ([1]; 6 h): 3.0 times
- average radiation intensity of YK-101, times that of named substance ([1]; 24 h): 10.6 times
- average radiation intensity of YK-107, times that of named substance ([1]; 24 h): 13.1 times
- average radiation intensity of YK-108, times that of named substance ([1]; 24 h): 14.1 times
- average radiation intensity of YK-101, times that of named substance ([1]; 48 h): 9.2 times
- average radiation intensity of YK-107, times that of named substance ([1]; 48 h): 11.1 times
- average radiation intensity of YK-108, times that of named substance ([1]; 48 h): 11.3 times
- average radiation intensity of YK-101, times that of named substance ([1]; 7 d): 2.4 times
- average radiation intensity of YK-107, times that of named substance ([1]; 7 d): 2.6 times
- average radiation intensity of YK-108, times that of named substance ([1]; 7 d): 2.8 times
- average radiation intensity, 6 h ([1]; 6 h): 661800
- average radiation intensity, 24 h ([1]; 24 h): 99777
- average radiation intensity, 48 h ([1]; 48 h): 20312
- average radiation intensity, 7 d ([1]; 7 d): 5050
- cell transfection efficiency, times that of YK-110 [2]: 5 times
- Relative light unit (RLU) [2]: 1328301 RLU
- Multiples (YK-101) [2]: 15.31
- Multiples (YK-107) [2]: 16.83
- Multiples (YK-108) [2]: 18.57
- fluorescence absorption value, times that of HHMA [2]: 0.65 times
- fluorescence absorption value, times that of Lipofectamine 3000 [2]: 1.24 times
- Ratio relative to SM-102 [2]: 0.87
- Fluc-mRNA expression signal intensity, times that of compound 21 [2]: 0.96 times
- fluorescence absorption value, times that of compound 23 [2]: 1.03 times
- Cell survival rate (%) [3]: 75.76%
- cell survival rate lower than that of YK-101 [3]: 14.36%
- cell survival rate lower than that of YK-107 [3]: 14.69%
- cell survival rate lower than that of YK-108 [3]: 14.10%
